# Patent US4990337A (priority 1988, dated 1991)
# Test: Test Example 2: emulsifiability of intermediate molecular weight fatty acid glycerides in water, test tube shaking
# Type: physicochemical
# Conditions: 1 ml glyceride and 9 ml water; for stability of the emulsion (separation between oil and water): on standing; for Emulsifiability: test tube shaken
# Protocol: 1 ml of an intermediate molecular weight fatty acid glyceride and 9 ml of water were placed in a test tube, and the test tube was shaken lightly to examine the emulsifiability of the intermediate molecular weight fatty acid glyceride.
# The intermediate molecular weight fatty acid glycerides examined in this Example were caprylic acid mono-, di- and tri- glycerides and caproic acid diglyceride.
Compound,stability of the emulsion (separation between oil and water),Emulsifiability
CCCCCCCC(=O)OCC(COC(=O)CCCCCCC)OC(=O)CCCCCCC [Caprylic acid triglyceride],tended to separate into oil and water,emulsified only after vigorous shaking by hand
Caproic acid diglyceride,–,intermediate emulsifiability
Caprylic acid monoglyceride,the emulsion was very stable,emulsified in a manner very close to self-emulsification
caprylic acid diglyceride,–,intermediate emulsifiability
